From patent publication US20240228448A1 (Washington University, priority 2021, published 2024)
Several values for one entry are separate records, joined by “and”; a condition that tells them apart may be missing. Equal entries are not always repeated. Where two headings read alike, the source gives them in different places.

Key:
S1P1 = S1P1 (Homo sapiens, UniProt P21453); test: competitive S1Ps cell membrane binding assay against [32P]S1P, S1P1
Source text: (§1) One way to measure affinity is use of a general competition binding assay.

S1P2 = S1P2 (Homo sapiens, UniProt O95136); test: competitive S1Ps cell membrane binding assay against [32P]S1P, S1P2; settings: Table 6
S1P3 = S1P3 (Homo sapiens, UniProt Q99500); test: competitive S1Ps cell membrane binding assay against [32P]S1P, S1P3; settings: Table 6
S1P4 = target: T1, S1P4 (Homo sapiens, UniProt O95977); test: competitive S1Ps cell membrane binding assay against [32P]S1P, S1P4; settings: Table 6; read-out: IC50 for S1P4
T1 sequence (O95977 1-384): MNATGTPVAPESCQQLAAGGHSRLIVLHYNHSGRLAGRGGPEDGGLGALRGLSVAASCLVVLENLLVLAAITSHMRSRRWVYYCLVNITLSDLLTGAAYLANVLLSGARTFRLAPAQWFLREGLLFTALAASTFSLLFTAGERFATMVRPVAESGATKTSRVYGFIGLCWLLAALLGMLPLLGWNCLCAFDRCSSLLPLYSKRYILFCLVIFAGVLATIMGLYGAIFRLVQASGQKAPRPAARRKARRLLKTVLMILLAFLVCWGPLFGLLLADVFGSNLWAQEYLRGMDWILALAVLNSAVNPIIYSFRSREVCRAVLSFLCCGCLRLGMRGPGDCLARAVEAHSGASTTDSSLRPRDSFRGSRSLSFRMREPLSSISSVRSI

S1P5 = S1P5 (Homo sapiens, UniProt Q9H228); test: competitive S1Ps cell membrane binding assay against [32P]S1P, S1P5
Source text: as §1

[1] = MicroPET brain study in cynomolgus macaque; settings: for brain uptake in nonhuman primates: MicroPET, in words
Procedure: Using a Focus 220 microPET scanner to collect dynamic scans for 2 hours after intravenous injection of ˜0.35 GBq dose into male macaques. Radiometabolites were measured from arterial blood samples collected at 5, 15, 30, and 60 min post-injection of radiotracer. The HPLC eluent was collected, and fractions were counted in a gamma counter.
Male macaques (˜10 kg) were used for PET imaging data acquisition with a microPET Focus 220 scanner (Siemens Inc., Knoxville, TN). Animals were anesthetized using ketamine and glycopyrrolate and maintained with inhalation of isoflurane. Core temperature was kept at 37° C. with a heated water blanket. The head was secured in a customized head holder. […] Emission data were corrected for dead time, scatter, and attenuation and then reconstructed. […] Predefined brain regions of interest from the template were applied to the co-registered PET image to obtain regional time-activity curves. The measurement of the brain uptake of radiotracer was standardized to body weight and the dose of radioactivity injected to yield a standardized uptake value (SUV).
The brain uptakes of these tracers were measured by Focus 220 microPET scanner to collect dynamic scans for 2 hours after intravenous injection of ˜0.35 GBq dose into male cynomolgus macaques (8-9 kg).

[2] = Human biodistribution / dosimetry PET study of [11C]CS1P1; format: in vivo
Procedure: One human (88 kg, SIEMENS, patient ID: 1179101) was imaged with a dose of 7.2 mCi (FIG. 10A). Good uptake was found in the brain (FIG. 10B). Residence time and total absorbed dose in individual organs was also measured (FIG. 10C and Table 4).

[3] = read-out: IC50 (nM) S1P1, Table 5
[4] = Table 5, read-out: IC50 (nM) S1P5

Chain of S1P3 (Q99500 whole entry, species assumed): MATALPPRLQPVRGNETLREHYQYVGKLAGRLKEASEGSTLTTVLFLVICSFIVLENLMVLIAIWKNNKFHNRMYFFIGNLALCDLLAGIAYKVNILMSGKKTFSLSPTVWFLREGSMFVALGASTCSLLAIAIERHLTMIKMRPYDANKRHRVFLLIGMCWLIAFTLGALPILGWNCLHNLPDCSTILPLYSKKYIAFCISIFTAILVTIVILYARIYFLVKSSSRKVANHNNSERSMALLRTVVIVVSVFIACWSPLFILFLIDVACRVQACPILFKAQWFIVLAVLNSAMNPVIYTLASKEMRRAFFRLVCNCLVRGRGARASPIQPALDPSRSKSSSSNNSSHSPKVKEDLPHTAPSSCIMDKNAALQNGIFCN
Chain of S1P1 (P21453 whole entry, species assumed): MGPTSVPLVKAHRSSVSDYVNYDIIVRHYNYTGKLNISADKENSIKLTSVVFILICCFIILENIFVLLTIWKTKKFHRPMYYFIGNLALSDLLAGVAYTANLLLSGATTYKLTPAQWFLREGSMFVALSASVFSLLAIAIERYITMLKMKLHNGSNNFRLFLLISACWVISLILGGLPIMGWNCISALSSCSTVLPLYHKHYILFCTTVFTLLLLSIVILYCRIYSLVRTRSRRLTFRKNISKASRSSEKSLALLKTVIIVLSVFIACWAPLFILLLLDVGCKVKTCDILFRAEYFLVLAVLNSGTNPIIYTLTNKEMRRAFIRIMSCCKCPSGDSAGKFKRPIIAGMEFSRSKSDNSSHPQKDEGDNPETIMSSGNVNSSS
Chain of S1P2 (O95136 whole entry, species assumed): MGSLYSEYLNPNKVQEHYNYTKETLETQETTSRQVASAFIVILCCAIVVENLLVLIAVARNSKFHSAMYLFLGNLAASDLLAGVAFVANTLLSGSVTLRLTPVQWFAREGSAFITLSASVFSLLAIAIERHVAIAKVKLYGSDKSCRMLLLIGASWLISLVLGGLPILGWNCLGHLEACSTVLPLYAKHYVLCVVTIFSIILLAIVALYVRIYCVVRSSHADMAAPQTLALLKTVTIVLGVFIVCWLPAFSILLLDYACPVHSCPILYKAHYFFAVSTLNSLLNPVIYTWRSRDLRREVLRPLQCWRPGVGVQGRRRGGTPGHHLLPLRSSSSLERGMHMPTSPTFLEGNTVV
Chain of S1P5 (Q9H228 whole entry, species assumed): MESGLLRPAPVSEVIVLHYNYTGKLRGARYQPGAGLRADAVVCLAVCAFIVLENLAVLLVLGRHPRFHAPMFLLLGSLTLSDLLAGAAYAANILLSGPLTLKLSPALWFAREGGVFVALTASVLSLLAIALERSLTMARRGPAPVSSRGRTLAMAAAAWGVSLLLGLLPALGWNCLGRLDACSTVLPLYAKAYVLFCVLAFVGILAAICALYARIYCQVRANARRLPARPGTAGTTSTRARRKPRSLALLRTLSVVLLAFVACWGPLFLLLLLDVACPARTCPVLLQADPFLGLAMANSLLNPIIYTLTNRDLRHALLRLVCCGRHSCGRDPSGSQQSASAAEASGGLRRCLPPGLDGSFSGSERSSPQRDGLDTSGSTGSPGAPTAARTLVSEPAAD

Structure (SMILES)	IC50 (S1P1; IC50 (nM) S1P1, Table 5)	IC50 (S1P5; [4])	further results
CNc1cccc(-c2noc(-c3ccc(OCCF)c(C(F)(F)F)c3)n2)c1 [TZ82-41]	82 ± 1.8 nM		
Nc1cccc(-c2noc(-c3ccc(OCCF)c(C(F)(F)F)c3)n2)c1 [TZ82-42]	29 ± 0.5 nM		
Nc1ccc(-c2noc(-c3ccc(OCCF)c(C(F)(F)F)c3)n2)cc1 [TZ82-43]	44 ± 0.6 nM		
Cc1ccccc1-c1ccc(-c2nc(-c3ccc(CN(C)CCO)c(F)c3)no2)cc1C(F)(F)F [TZ82-51]			IC50 (S1P2): > 1000 nM; IC50 (S1P3): 454 nM; IC50 (S1P4): > 1000 nM
Cc1ccccc1-c1ccc(-c2nc(-c3ccc(CN(C)CCCO)c(F)c3)no2)cc1C(F)(F)F [TZ82-52]			IC50 (S1P2): > 1000 nM; IC50 (S1P3): 418 nM; IC50 (S1P4): > 1000 nM
Cc1ccccc1-c1ccc(-c2nc(-c3ccc(CN(C)CCCCO)c(F)c3)no2)cc1C(F)(F)F [TZ82-53]			IC50 (S1P1; [3]): 4.9 nM
CN(CCC(=O)O)Cc1ccc(-c2noc(-c3ccc(OCc4cccnc4F)c(C(F)(F)F)c3)n2)cc1F [TZ82-55]	159 nM	74.4 nM	
CN(CCC(=O)O)Cc1ccc(-c2noc(-c3ccc(OCc4cccc(F)n4)c(C(F)(F)F)c3)n2)cc1F [TZ82-56]	55.4 nM	39.3 nM	
Cc1ccccc1-c1ccc(-c2nc(-c3ccc(CN(C)CCC(=O)O)c(Br)c3)no2)cc1C(F)(F)F [TZ82-65]	2.1 nM	11 nM	
Cc1ccccc1-c1ccc(-c2nc(-c3ccc(COCCCO)c(F)c3)no2)cc1C(F)(F)F [TZ82-78]	2.8 nM		
OCc1ccc(-c2noc(-c3ccc(OCc4cccnc4F)c(C(F)(F)F)c3)n2)cc1 [TZ82-91]	239 nM	182 nM	
OCc1ccc(-c2noc(-c3ccc(OCc4cccc(F)n4)c(C(F)(F)F)c3)n2)cc1 [TZ82-92]	243 nM	934 nM	
Cc1ccccc1-c1ccc(-c2nc(-c3ccc(CNCCC(=O)O)c(F)c3)no2)cc1C(F)(F)F [TZ82-94]	0.7 nM	7.2 nM	
Cc1ccccc1-c1ccc(-c2nc(-c3ccc(CNCCCO)c(F)c3)no2)cc1C(F)(F)F [TZ82-95]		12.8 nM	IC50 (S1P1; [3]): 2.1 nM
Cc1ccccc1-c1ccc(-c2nc(-c3ccc(CN(C)CCS(=O)(=O)O)c(F)c3)no2)cc1C(F)(F)F [TZ82-101]	2.3 nM		
Cc1ccccc1-c1ccc(-c2nc(-c3ccc(CN(C)CCNC(=O)OC(C)(C)C)c(F)c3)no2)cc1C(F)(F)F [TZ82-102]	23.8 nM		
Cc1ccccc1-c1ccc(-c2nc(-c3ccc(CNO)c(F)c3)no2)cc1C(F)(F)F [TZ82-105]	8.7 nM		
CNCc1ccc(-c2noc(-c3ccc(OCCF)c(C(F)(F)F)c3)n2)cc1F [TZ82-110]	13.4 nM		
CN(CCCO)Cc1ccc(-c2noc(-c3ccc(OCCF)c(C(F)(F)F)c3)n2)cc1F [TZ82-112]	15.8 nM	234 nM	IC50 (S1P2): > 1000 nM; IC50 (S1P5; Table 6, read-out: IC50 for S1P5): > 1000 nM; IC50 (S1P3): 746 nM; IC50 (S1P4): > 1000 nM; IC50 (S1P1; IC50 for S1P1 (nM), Table 6, single determinations): 15.8 nM and 2.03 nM and 8.17 nM
CN(CCO)Cc1ccc(-c2noc(-c3ccc(OCCF)c(C(F)(F)F)c3)n2)cc1F [TZ82-114]	14.6 nM	120 nM	
CN(CCCCO)Cc1ccc(-c2noc(-c3ccc(OCCF)c(C(F)(F)F)c3)n2)cc1F [TZ82-115]		721 nM	
CNC(=O)CCN(C)Cc1ccc(-c2noc(-c3ccc(-c4ccccc4C)c(C(F)(F)F)c3)n2)cc1F [TZ82-118]	3 nM		
CN(CCCO)Cc1ccc(-c2noc(-c3ccc(OCCF)c(C(F)(F)F)c3)n2)cc1 [TZ82-124]		450 nM	
COc1ccc(-c2nc(-c3ccc(CN(C)CCCO)cc3)no2)cc1C(F)(F)F [TZ82-126]		1940 nM	
Cc1ccccc1-c1ccc(-c2nc(-c3ccc(CN([11CH3])CCC(=O)O)c(F)c3)no2)cc1C(F)(F)F [[^11C]CS1P1]			brain uptake, maximum SUV value ([1]; macaque brain, from 20 to 120 min post-injection): ~2.3; total absorbed dose ([2]; Brain, human): 1.02 ± 0.1 μGy/MBq; total absorbed dose ([2]; Gall bladder, human): 4.82 ± 0.19 μGy/MBq; total absorbed dose ([2]; Heart wall, human): 2.06 ± 0.13 μGy/MBq; total absorbed dose ([2]; Kidneys, human): 4.66 ± 0.22 μGy/MBq; total absorbed dose ([2]; Liver, human): 9.88 ± 0.03 μGy/MBq; total absorbed dose ([2]; Lung, human): 2.13 ± 0.56 μGy/MBq; total absorbed dose ([2]; Pancreas, human): 2.22 ± 0.07 μGy/MBq; total absorbed dose ([2]; Spleen, human): 3.09 ± 0.35 μGy/MBq; total absorbed dose ([2]; Urinary bladder, human): 0.48 ± 0.32 μGy/MBq; total human effective dose ([2]; administration of 10 mCi (370 MBq)): < 0.6 mSv; Effective does (μSv/MBq) ([2]; human): 1.60 ± 0.15 μSv/MBq; safety of imaging for clinical PET studies ([2]; human, in words): safe
Cc1ccccc1-c1ccc(-c2nc(-c3ccc(CN(C)CC(=O)O)c([18F])c3)no2)cc1C(F)(F)F [[^18F]TZ8247]			brain uptake in nonhuman primates [1]: high brain uptake
Cc1ccccc1-c1ccc(-c2nc(-c3ccc(CN(C)CCCC(=O)O)c([18F])c3)no2)cc1C(F)(F)F [[^18F]TZ8248]			brain uptake in nonhuman primates [1]: high brain uptake; brain uptake, standard uptake value (SUV) ([1]; macaque brain, 120 min post-injection): ~2.8
